Experimental data as given in article PMC8129716 (CPT: Pharmacometrics & Systems Pharmacology, 2021).
≈ marks a conversion by molar mass, not a printed value.

Tests used:
[1] = logP; type: physicochemical; settings: octanol/water
[2] = test system: CYP2C8; experiment: CYP2C8 induction in vitro; type: in vitro ADME, human
[3] = test system: CYP2C9; settings: zanubrutinib 320 mg total daily dose, cocktail; cited from earlier work
[4] = human ADME study, single radiolabeled dose 320 mg; type: in vivo
[5] = biological target: T1, OCT2 (Homo sapiens, UniProt O15244); experiment: transporter substrate/inhibitor assessment; type: in vitro ADME
T1 sequence (O15244 1-555): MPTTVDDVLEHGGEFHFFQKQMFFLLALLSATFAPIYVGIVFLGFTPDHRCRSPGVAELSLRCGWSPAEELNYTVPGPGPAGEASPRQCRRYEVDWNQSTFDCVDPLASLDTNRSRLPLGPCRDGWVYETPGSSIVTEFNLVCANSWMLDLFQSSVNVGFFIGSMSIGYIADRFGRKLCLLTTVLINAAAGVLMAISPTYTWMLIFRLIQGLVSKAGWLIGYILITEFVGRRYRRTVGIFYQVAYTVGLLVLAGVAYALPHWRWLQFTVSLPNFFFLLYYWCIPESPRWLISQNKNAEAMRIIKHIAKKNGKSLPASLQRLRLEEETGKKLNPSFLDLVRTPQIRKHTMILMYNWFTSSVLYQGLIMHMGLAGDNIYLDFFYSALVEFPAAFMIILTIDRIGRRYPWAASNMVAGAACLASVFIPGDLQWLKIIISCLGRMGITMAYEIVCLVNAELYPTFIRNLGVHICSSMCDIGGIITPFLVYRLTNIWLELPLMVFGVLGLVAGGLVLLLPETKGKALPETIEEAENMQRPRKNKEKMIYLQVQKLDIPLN

[6] = biological target: T2, OATP1B3 (Homo sapiens, UniProt Q9NPD5); experiment: transporter substrate/inhibitor assessment; type: in vitro ADME
T2 sequence (Q9NPD5 1-702): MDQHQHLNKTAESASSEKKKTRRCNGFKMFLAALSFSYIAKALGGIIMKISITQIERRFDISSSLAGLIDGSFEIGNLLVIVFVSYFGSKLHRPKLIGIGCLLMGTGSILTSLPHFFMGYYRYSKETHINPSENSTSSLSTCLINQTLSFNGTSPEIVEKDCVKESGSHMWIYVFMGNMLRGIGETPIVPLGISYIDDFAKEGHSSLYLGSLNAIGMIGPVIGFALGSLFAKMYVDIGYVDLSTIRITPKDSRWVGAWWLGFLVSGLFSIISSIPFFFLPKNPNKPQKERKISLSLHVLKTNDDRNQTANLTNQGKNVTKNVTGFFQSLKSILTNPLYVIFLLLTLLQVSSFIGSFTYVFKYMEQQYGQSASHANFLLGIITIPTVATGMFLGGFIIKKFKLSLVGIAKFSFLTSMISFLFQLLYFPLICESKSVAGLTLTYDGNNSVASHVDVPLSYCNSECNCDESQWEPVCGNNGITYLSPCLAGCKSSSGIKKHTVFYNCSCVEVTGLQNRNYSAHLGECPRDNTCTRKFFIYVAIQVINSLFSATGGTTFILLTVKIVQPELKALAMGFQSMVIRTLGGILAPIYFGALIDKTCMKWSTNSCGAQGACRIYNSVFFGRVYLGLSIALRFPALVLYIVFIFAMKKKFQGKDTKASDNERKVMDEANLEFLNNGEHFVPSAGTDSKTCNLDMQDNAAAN

[7] = test system: Caco‐2; experiment: in vitro permeability study; type: in vitro ADME; settings: experimental data adjusted to match Fa~0.7
[8] = oral, patients with B-cell malignancies; cited from earlier work
[9] = pKa; type: physicochemical
[10] = measured solubility at different pH levels; type: physicochemical
[11] = population PK analysis; cited from earlier work
[12] = biological target: CYP2D6 (Homo sapiens, UniProt P10635); experiment: reversible competitive CYP inhibition; type: in vitro ADME; settings: read-out: Ki CYP2D6; Ki=IC50/2
CYP2D6, sequence (P10635 whole entry): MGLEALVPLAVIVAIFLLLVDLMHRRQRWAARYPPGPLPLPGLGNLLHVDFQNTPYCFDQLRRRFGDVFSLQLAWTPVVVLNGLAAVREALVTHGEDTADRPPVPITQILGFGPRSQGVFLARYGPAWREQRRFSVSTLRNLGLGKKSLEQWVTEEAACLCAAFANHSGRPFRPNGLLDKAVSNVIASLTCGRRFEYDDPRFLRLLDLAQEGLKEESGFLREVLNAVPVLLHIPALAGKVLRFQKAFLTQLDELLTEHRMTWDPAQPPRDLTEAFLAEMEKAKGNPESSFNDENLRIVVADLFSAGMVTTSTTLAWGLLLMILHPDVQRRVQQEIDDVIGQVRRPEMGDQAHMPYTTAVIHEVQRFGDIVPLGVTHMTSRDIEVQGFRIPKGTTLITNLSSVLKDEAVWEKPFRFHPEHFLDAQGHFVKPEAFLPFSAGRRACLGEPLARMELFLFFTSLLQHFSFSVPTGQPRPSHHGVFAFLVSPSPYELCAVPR

[13] = test system: CYP3A; settings: cited from earlier work
[14] = human liver microsome intrinsic clearance; type: in vitro ADME; settings: liver microsomes
[15] = test system: CYP3A4; experiment: CYP3A4 induction in human hepatocytes; type: in vitro ADME
[16] = single radiolabeled 320 mg, healthy subjects

C=CC(=O)N1CCC([C@@H]2CCNc3c(C(N)=O)c(-c4ccc(Oc5ccccc5)cc4)nn32)CC1 [zanubrutinib, Zanubrutinib]
logP [1]: 4.2
effect on the activity of CYP2C9, BCRP and P-gp [3]: minimal or no effect
zanubrutinib absorbed ([4]; inferred from unchanged drug in feces): 60–70%
dose excreted renally as parent drug ([4]; single radiolabeled 320 mg): 0.4 % of the dose
unchanged zanubrutinib in feces ([4]; single radiolabeled 320 mg): 38 % of the dose
dose recovered in feces [4, 16]: approximately 87%
dose recovered in urine [4, 16]: ~8%
substrate or inhibitor of OCT2 [5]: not a substrate or inhibitor
substrate or inhibitor of OATP1B3 [6]: not a substrate or inhibitor
Peff,man [7]: 0.9 10^−4 cm/s
mean apparent terminal elimination half-life [8]: 2 to 4 h
pKa [9]: 3.3
solubility ([10]; pH 1.2): 247 µg/mL (≈ 524 µM)
solubility ([10]; pH 4.5): 73 µg/mL (≈ 155 µM)
solubility ([10]; pH 6.8): 54 µg/mL (≈ 115 µM)
solubility ([10]; pH 7.4): 52 µg/mL (≈ 110 µM)
AUC lower in patients compared with healthy volunteers [11]: 43.7%
Cmax lower in patients compared with healthy volunteers [11]: 26.8%
Ki [12]: 36400 nM
CYP3A induction in vivo ([13]; clinical study BGB-3111-108 with midazolam): weak CYP3A inducer
mean reduction of systemic exposure of CYP3A and CYP2C19 substrates ([13]; zanubrutinib 320 mg total daily dose): < 50%
microsomal CLint [14]: 109 µL/min/mg
increase of CYP3A4 activity ([15]; 3 μM): 6.27 fold
increase of CYP3A4 activity ([15]; 30 μM): 2.51 fold
Indmax CYP3A4 ([15]; Emax model on activity data): 6.27 fold
EC50 ([15]; human, hepatocytes): 470 nM
R3 (CYP3A induction potential) ([15]; per FDA DDI guidance, from in vitro data): 0.23
